ChEMBL document CHEMBL1201862, “PubChem BioAssay data set” (2004)
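Where inhibition never reached the appropriate level, the endpoint shown equals the highest concentration tested. Otherwise, values were interpolated linearly from a five-concentration, 48-hour dose response in 96-well plates. At the GI50, growth is halved.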 Active and inactive are the calls of the source. No stated cut-off is given here; in the data, active = GI50 up to about 1.1 µM and inactive = higher.

What was measured:
Test in all cases: NCI tumour cell line growth inhibition, 48 h
[1] = system: A498
[2] = system: ACHN
[3] = system: DLD-1
[4] = system: HOP-92
[5] = system: NCI-H460
[6] = system: NCI-H522
[7] = system: OVCAR-3
[8] = system: OVCAR-8
[9] = system: RXF 393
[10] = system: SF-268
[11] = system: SF-295
[12] = system: SK-MEL-28
[13] = system: SK-OV-3
[14] = system: TK-10
[15] = system: U-251
[16] = system: DMS-273
[17] = system: BT-549
[18] = system: DU-145
[19] = system: MDA-MB-435
[20] = system: T47D

Measured: GI50

CC1(C)CCCC2(C)C3C(O)CC2(C)C(O)C31 (centres undefined)
inactive: [1] > 100 µM | [2] > 100 µM | [3] > 100 µM | [4] > 10 µM | [5] > 100 µM | [6] > 100 µM | [7] > 100 µM | [8] > 100 µM | [9] > 100 µM | [10] > 100 µM | [11] > 100 µM | [12] > 100 µM | [13] > 100 µM | [14] > 100 µM | [15] > 100 µM

CC(C)(C)C1=Nc2c(Br)cc(C(C)(C)C)cc2C(C(F)(F)F)(C(F)(F)F)O1
inactive: [2] 45 µM | [3] > 100 µM | [16] 46 µM | [5] > 100 µM | [6] 31.1 µM | [7] 17 µM | [8] 80.5 µM | [9] 22.5 µM | [10] > 10 µM | [11] 54.8 µM | [12] 32.7 µM | [13] > 100 µM | [14] > 100 µM | [15] 22.9 µM

O=c1oc2c3ccc4ccccc4c3n(CCCN3CCCCC3)c2c2ccccc12
inactive: [2] > 100 µM | [3] 25.2 µM | [4] > 100 µM | [5] 14.7 µM | [6] > 100 µM | [7] > 100 µM | [8] 32.7 µM | [10] 59.2 µM | [11] 46.9 µM | [12] 19.1 µM | [13] > 100 µM | [14] 42.1 µM

COc1ccc(NC(=O)CC/C(CC(=O)C(C)(C)C)=N\NC(=O)C(N)=O)cc1
inactive: [2] > 100 µM | [3] > 100 µM | [4] > 100 µM | [5] > 100 µM | [7] > 100 µM | [8] > 100 µM | [9] > 100 µM | [10] > 100 µM | [11] > 100 µM | [12] > 100 µM | [13] > 100 µM | [15] > 100 µM

N#C/C(=C/c1ccc2c(c1)OCO2)C(=O)c1ccccc1
inactive: [1] > 100 µM | [2] > 100 µM | [3] > 100 µM | [5] > 100 µM | [6] > 100 µM | [7] > 100 µM | [8] > 100 µM | [10] > 100 µM | [11] > 100 µM | [12] > 100 µM | [13] > 100 µM | [14] > 100 µM | [15] > 100 µM

Cc1ccc(S(=O)(=O)N/N=C(/CC(=O)c2c(C)[n+]([O-])c3ccccc3[n+]2[O-])C(=O)Nc2ccc(C)c(C)c2)cc1
inactive: [1] > 100 µM | [2] 25.1 µM | [3] > 100 µM | [16] 44.8 µM | [5] 41.9 µM | [6] 70.1 µM | [7] 16.5 µM | [9] > 100 µM | [10] > 100 µM | [11] > 100 µM | [12] > 100 µM | [13] > 100 µM | [15] 28.5 µM

O=C1c2ccccc2C2(O)N(c3ccccc3)C(=S)N(c3ccccc3)C12O (centres undefined)
inactive: [1] > 100 µM | [2] > 100 µM | [3] > 100 µM | [16] > 100 µM | [5] > 100 µM | [6] > 100 µM | [7] > 100 µM | [8] > 100 µM | [9] > 100 µM | [10] > 100 µM | [11] > 100 µM | [12] > 100 µM | [13] > 100 µM | [14] > 100 µM | [15] > 100 µM

COc1ccccc1NC(=O)C1=C(C)NC(C)=C(C(=O)Nc2ccccc2OC)C1C1=CC=COC1
inactive: [1] 6.17 µM | [2] 9.23 µM | [3] 11.5 µM | [16] 6.81 µM | [4] 25.9 µM | [5] 3.92 µM | [7] 3.11 µM | [8] 14.6 µM | [10] 13.6 µM | [11] 6.73 µM | [12] 18.8 µM | [13] 10.4 µM | [14] 16.5 µM | [15] 9.71 µM

CC1(c2cccc(C3CC4(CCC3=O)OCCCCO4)c2)OCCO1 (centres undefined)
inactive: [1] > 100 µM | [2] > 100 µM | [3] > 100 µM | [16] > 100 µM | [5] > 100 µM | [6] > 100 µM | [7] > 100 µM | [8] > 100 µM | [10] > 100 µM | [11] > 100 µM | [12] > 100 µM | [13] > 100 µM | [14] > 100 µM | [15] > 100 µM

CCc1c(OC(C)=O)c2c(NC3OCC(OC(C)=O)C(OC(C)=O)C3OC(C)=O)nc(SC)nc2oc1=O (centres undefined)
inactive: [1] > 100 µM | [2] > 100 µM | [3] > 100 µM | [4] > 100 µM | [5] > 100 µM | [7] > 100 µM | [8] > 100 µM | [9] > 100 µM | [11] > 100 µM | [13] > 100 µM | [14] > 100 µM | [15] > 100 µM

COc1ccc(OC)c2cc(C3(C)SCCCS3)ccc12
inactive: [1] > 100 µM | [2] > 100 µM | [3] > 100 µM | [16] 79.6 µM | [5] 78.3 µM | [7] > 100 µM | [8] > 100 µM | [9] 20.5 µM | [10] > 100 µM | [11] 78.2 µM | [12] > 100 µM | [13] > 100 µM | [14] > 100 µM | [15] 19.3 µM

O=C(NC1CC1)c1c(O)[nH]c(=S)[nH]c1=O
inactive: [1] > 100 µM | [2] > 100 µM | [3] > 100 µM | [4] > 100 µM | [5] > 100 µM | [6] > 100 µM | [7] > 100 µM | [8] > 100 µM | [10] > 100 µM | [11] > 100 µM | [12] > 100 µM | [13] > 100 µM | [14] > 100 µM | [15] > 100 µM

COc1ncn(C2C=C(CO)C(O)C2O)c(=O)n1 (centres undefined)
inactive: [1] > 100 µM | [2] > 100 µM | [3] > 100 µM | [16] > 100 µM | [5] > 100 µM | [6] > 100 µM | [7] > 100 µM | [8] > 100 µM | [9] > 100 µM | [10] > 100 µM | [12] > 100 µM | [13] > 100 µM | [14] > 100 µM | [15] > 100 µM

Nc1ccc([As](=O)(O)O)cc1 [ARSANILIC ACID]
inactive: [1] > 100 µM | [2] > 100 µM | [17] > 100 µM | [18] > 100 µM | [4] > 100 µM | [19] > 100 µM | [5] > 100 µM | [6] > 100 µM | [7] > 100 µM | [8] > 100 µM | [9] > 100 µM | [10] > 100 µM | [11] > 100 µM | [12] > 100 µM | [13] > 100 µM | [20] > 100 µM | [14] > 100 µM | [15] > 100 µM
